Assays:
[1] = test system: normal primary NK cells, pool 1 (3 donors) (IL-2 2.5 ng/mL); test: percent inhibition of viability; higher = more inhibition; conditions: 72 h
[2] = test system: normal primary NK cells, pool 3 (3 donors) (IL-2 2.5 ng/mL); test: as above; conditions: 72 h
[3] = test system: DERL-7 (IL-2 2.5 ng/mL); test: as above; conditions: 72 h
[4] = test system: NK-92 (IL-2 2.5 ng/mL); test: as above; conditions: 72 h
[5] = test system: YT (IL-2 2.5 ng/mL); test: as above; conditions: 72 h
[6] = test system: normal primary NK cells, pool 2 (3 donors) (IL-2 2.5 ng/mL); test: as above; conditions: 72 h
[7] = test system: IMC-1 (IL-2 20 ng/mL); test: as above; conditions: 72 h
[8] = test system: SNK-6 (IL-2 2.5 ng/mL); test: as above; conditions: 72 h
[9] = test system: normal primary NK cells, pool 1 (3 donors), resting (IL-2 0 ng/mL); test: as above; conditions: 72 h
[10] = test system: KAI3 (IL-2 2.5 ng/mL); test: as above; conditions: 72 h
[11] = test system: NK-YS (IL-2 2.5 ng/mL); test: as above; conditions: 72 h
[12] = test system: NKL (IL-2 2.5 ng/mL); test: as above; conditions: 72 h
[13] = test system: KHYG-1 (IL-2 2.5 ng/mL); test: as above; conditions: 72 h
[14] = test system: normal NK cells expanded with K562-aAPC; test: as above; conditions: 72 h, IL-2 2.5 ng/mL
Protocol: (§1)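 Drug sensitivity and resistance testing on K562-aAPC-expanded normal NK cells: 5 concentrations (10-fold steps over a 10,000-fold range), 72 h at 37 °C, viability by CellTiter-Glo normalised to DMSO and benzethonium chloride controls; DSS from the fitted curve.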

[15] = test system: normal NK cells expanded with K562-aAPC; test: drug sensitivity score (DSS) (DSS units); higher = more sensitive; extreme values may be limits of the assay; conditions: 72 h; IL-2 2.5 ng/mL
Protocol: as §1

[16] = test system: normal primary NK cells, pool 1 (3 donors) (IL-2 2.5 ng/mL); test: as above; conditions: 72 h
[17] = test system: normal primary NK cells, pool 3 (3 donors) (IL-2 2.5 ng/mL); test: as above; conditions: 72 h
[18] = test system: DERL-7 (IL-2 2.5 ng/mL); test: as above; conditions: 72 h
[19] = test system: NK-92 (IL-2 2.5 ng/mL); test: as above; conditions: 72 h
[20] = test system: YT (IL-2 2.5 ng/mL); test: as above; conditions: 72 h
[21] = test system: normal primary NK cells, pool 2 (3 donors) (IL-2 2.5 ng/mL); test: as above; conditions: 72 h
[22] = test system: IMC-1 (IL-2 20 ng/mL); test: as above; conditions: 72 h
[23] = test system: SNK-6 (IL-2 2.5 ng/mL); test: as above; conditions: 72 h
[24] = test system: normal primary NK cells, pool 1 (3 donors), resting (IL-2 0 ng/mL); test: as above; conditions: 72 h
[25] = test system: KAI3 (IL-2 2.5 ng/mL); test: as above; conditions: 72 h
[26] = test system: NK-YS (IL-2 2.5 ng/mL); test: as above; conditions: 72 h
[27] = test system: NKL (IL-2 2.5 ng/mL); test: as above; conditions: 72 h
[28] = test system: KHYG-1 (IL-2 2.5 ng/mL); test: as above; conditions: 72 h

O=P1(N(CCCl)CCCl)NCCCO1 (stereo not given) [Cyclophosphamide] (max concentration tested 40000 nM)
percent inhibition of viability [%]
Conditions | 4 nM | 40 nM | 400 nM | 4000 nM | 40000 nM
[1] | -10.4 | -10.4 | -10.4 | 1.26 | 30.9
[2] | -7.23 | -5.67 | -9.18 | 0.96 | 16.7
[3] | -4.46 | -3.5 | -1.09 | -0.28 | 5.07
[4] | -18.2 | -9.83 | -4.39 | -1.7 | 10.6
[5] | -4.55 | -6.6 | -7.59 | -8.95 | -8.31
[6] | -11 | -0.5 | -0.82 | 2.11 | 21.8
[7] | -3.57 | -3.7 | -1.67 | -7.03 | -3.85
[8] | 7.84 | -6.82 | 9.06 | -4.15 | 10.8
[9] | -3.08 | -15.2 | -6.52 | 18.4 | 64.8
[10] | -3.45 | 3.79 | 4.87 | 17.2 | 40.9
[11] | -5.26 | -6.65 | -2.31 | -4.3 | 5.51
[12] | -11.1 | -8.19 | -4.09 | -3.02 | 8.99
[13] | -3.97 | -6.87 | -6.42 | -6.18 | -3.6
[14] | 1.23 | -1.48 | -6.12 | -0.37 | 32.1

Conditions | drug sensitivity score
[15] | 1.42
[16] | 1.52
[17] | 0.44
[18] | 0
[19] | 0
[20] | 0
[21] | 1.01
[22] | 0
[23] | 0
[24] | 6.32
[25] | 3.77
[26] | 0
[27] | 0
[28] | 0

Nc1ccn([C@@H]2O[C@H](CO)[C@@H](O)[C@@H]2O)c(=O)n1 [Cytarabine] (max concentration tested 10000 nM)
percent inhibition of viability [%]
Conditions | 1 nM | 10 nM | 100 nM | 1000 nM | 10000 nM
[1] | -4.48 | -4.56 | -4.83 | 23 | 80.4
[2] | -11.3 | -7.93 | -9.4 | 7.11 | 73.2
[3] | -3.03 | 23.2 | 88.8 | 98.1 | 99.7
[4] | 0.96 | 0.98 | 50.8 | 95.5 | 97.8
[5] | -3.82 | 0.15 | -0.65 | 19.1 | 28.4
[6] | -14.2 | -13.4 | -1.98 | 13.2 | 79.9
[7] | -2.71 | -1.64 | 59.5 | 98.2 | 99.6
[8] | 18.7 | 4.98 | 31.7 | 83.1 | 97.5
[9] | -11.7 | -15.1 | -18.8 | 29.4 | 78.7
[10] | -13.4 | 12.5 | 67.4 | 95.8 | 95.5
[11] | -6.32 | -1.48 | 14 | 77.5 | 92.9
[12] | -6.71 | 6.58 | 60.2 | 94.3 | 93.6
[13] | -3.64 | 17.1 | 88.3 | 105 | 102
[14] | 0.23 | -1.23 | 28.7 | 84.4 | 98.9

Conditions | drug sensitivity score
[15] | 19
[16] | 7.89
[17] | 5.19
[18] | 31.5
[19] | 23.6
[20] | 3.34
[21] | 6.63
[22] | 25
[23] | 19.1
[24] | 8.4
[25] | 26.2
[26] | 16
[27] | 24.4
[28] | 30.8

Nc1ncn([C@H]2C[C@H](O)[C@@H](CO)O2)c(=O)n1 [Decitabine] (max concentration tested 10000 nM)
percent inhibition of viability [%]
Conditions | 1 nM | 10 nM | 100 nM | 1000 nM | 10000 nM
[1] | 8.63 | 2.5 | -2.22 | -0.78 | 30.4
[2] | -2.52 | -0.43 | 2.61 | 5.08 | 47.6
[3] | 0.66 | -1.23 | 21.1 | 60.8 | 92.3
[4] | 14.1 | 7.13 | 28.5 | 42.4 | 81.5
[5] | 9.12 | 6.63 | 10.1 | 24.2 | 47.4
[6] | -3.35 | -1.69 | -11.7 | 3 | 32.2
[7] | 6.19 | 9.72 | 18.9 | 18.9 | 49.6
[8] | 3.81 | 14.8 | 64.3 | 70.1 | 78.8
[9] | 3.59 | -12.2 | 2.07 | -6.83 | 43.9
[10] | 10.1 | 26.4 | 51.8 | 58.8 | 73
[11] | 2.7 | 4.69 | 16.5 | 38 | 64.8
[12] | 0.73 | 9.17 | 7.62 | 27.4 | 15
[13] | 4.42 | 1.27 | 13.6 | 51.4 | 89.8
[14] | 3.63 | 6.61 | 11.9 | 21.8 | 56.1

Conditions | drug sensitivity score
[15] | 5.69
[16] | 1.27
[17] | 3.32
[18] | 14.1
[19] | 12.6
[20] | 5.68
[21] | 1.92
[22] | 6.54
[23] | 23.5
[24] | 1.82
[25] | 21
[26] | 9.23
[27] | 3.12
[28] | 11.7

CC(=O)O[C@@]12CO[C@@H]1C[C@H](O)[C@@]1(C)C(=O)[C@H](O)C3=C(C)[C@@H](OC(=O)[C@H](O)[C@@H](NC(=O)OC(C)(C)C)c4ccccc4)C[C@@](O)([C@@H](OC(=O)c4ccccc4)[C@H]21)C3(C)C [Docetaxel] (max concentration tested 1000 nM)
percent inhibition of viability [%]
Conditions | 0.1 nM | 1 nM | 10 nM | 100 nM | 1000 nM
[1] | -5.72 | -1.18 | 7.27 | 4.99 | 10.2
[2] | -13.5 | -17 | 14 | 7.86 | 24.8
[3] | -4.53 | 0.19 | 99.5 | 100 | 100
[4] | -6.6 | 2.65 | 46 | 98.9 | 104
[5] | -3.12 | 22.3 | 90.7 | 105 | 105
[6] | -10.9 | -7.43 | 13.8 | 3.59 | 13.1
[7] | -1.65 | 2.39 | 97.9 | 101 | 101
[8] | 15 | 38.3 | 77.9 | 76.7 | 70.6
[9] | -16.6 | -21.6 | -3.21 | -14.6 | 1.53
[10] | -10.5 | 19.4 | 46.7 | 57.1 | 51.6
[11] | -7.69 | 14.3 | 74.8 | 77.7 | 73.1
[12] | -13.8 | 29 | 88.5 | 97.8 | 96.7
[13] | -5.67 | 3.57 | 90.9 | 108 | 109
[14] | 1.57 | -0.15 | 44.7 | 62.4 | 60.9

Conditions | drug sensitivity score
[15] | 16.8
[16] | 0
[17] | 1.58
[18] | 30.4
[19] | 23.4
[20] | 31.9
[21] | 0.25
[22] | 30.5
[23] | 28.8
[24] | 0
[25] | 18.3
[26] | 25.9
[27] | 32.2
[28] | 29.3

CN1CCN(c2ccc3nc(-c4c(N)c5c(F)cccc5[nH]c4=O)[nH]c3c2)CC1 [Dovitinib] (max concentration tested 10000 nM)
percent inhibition of viability [%]
Conditions | 1 nM | 10 nM | 100 nM | 1000 nM | 10000 nM
[1] | -15.6 | -11.3 | -2.48 | -5.56 | 9.92
[2] | -13.4 | -9.6 | -2.56 | -3.69 | 18.9
[3] | -0.26 | -2.47 | -0.75 | 1.93 | 19.1
[4] | -5.95 | -5.28 | -3.15 | -3.74 | 0.3
[5] | 1.17 | 0.22 | 2.9 | 5.68 | 1.67
[6] | -7.55 | -5.64 | -7.93 | -6.84 | 19.6
[7] | -9.28 | -4.03 | -5.76 | -6.55 | -7.61
[8] | -4.17 | -5.09 | -18.2 | -14 | -35.3
[9] | -23.8 | -2.86 | 19.4 | 10.6 | 53.9
[10] | 2.03 | -0.28 | 0.82 | 4.98 | 25.2
[11] | -1.41 | -0.72 | 1.54 | 8.71 | 13.5
[12] | -10 | -6.08 | -3.28 | 8.58 | 51.6
[13] | -5.15 | -3.54 | 0.13 | 3.06 | 2.7
[14] | -2.16 | -2.71 | 2.91 | -0.42 | 3.96

Conditions | drug sensitivity score
[15] | 0
[16] | 0
[17] | 0.36
[18] | 0.77
[19] | 0
[20] | 0
[21] | 0.35
[22] | 0
[23] | 0
[24] | 4.36
[25] | 1.71
[26] | 0.43
[27] | 4.18
[28] | 0

Reference: the supplement of paper PMC5908809
